From PMC9495348, “Polyfunctionalized α-Phenyl-tert-butyl(benzyl)nitrones: Multifunctional Antioxidants for Stroke Treatment” (Antioxidants, 2022)

What was measured:
soybean lipoxygenase = target: T1, soybean lipoxygenase (Glycine max, UniProt P08170); test: In vitro inhibition of soybean LOX; format: biochemical; details: for IC50: soybean LOX, sodium linoleate 0.1 mM
T1 construct: purchased Aldrich Chemical Co. Milwaukee, WI, (USA)
T1 sequence (P08170 1-839): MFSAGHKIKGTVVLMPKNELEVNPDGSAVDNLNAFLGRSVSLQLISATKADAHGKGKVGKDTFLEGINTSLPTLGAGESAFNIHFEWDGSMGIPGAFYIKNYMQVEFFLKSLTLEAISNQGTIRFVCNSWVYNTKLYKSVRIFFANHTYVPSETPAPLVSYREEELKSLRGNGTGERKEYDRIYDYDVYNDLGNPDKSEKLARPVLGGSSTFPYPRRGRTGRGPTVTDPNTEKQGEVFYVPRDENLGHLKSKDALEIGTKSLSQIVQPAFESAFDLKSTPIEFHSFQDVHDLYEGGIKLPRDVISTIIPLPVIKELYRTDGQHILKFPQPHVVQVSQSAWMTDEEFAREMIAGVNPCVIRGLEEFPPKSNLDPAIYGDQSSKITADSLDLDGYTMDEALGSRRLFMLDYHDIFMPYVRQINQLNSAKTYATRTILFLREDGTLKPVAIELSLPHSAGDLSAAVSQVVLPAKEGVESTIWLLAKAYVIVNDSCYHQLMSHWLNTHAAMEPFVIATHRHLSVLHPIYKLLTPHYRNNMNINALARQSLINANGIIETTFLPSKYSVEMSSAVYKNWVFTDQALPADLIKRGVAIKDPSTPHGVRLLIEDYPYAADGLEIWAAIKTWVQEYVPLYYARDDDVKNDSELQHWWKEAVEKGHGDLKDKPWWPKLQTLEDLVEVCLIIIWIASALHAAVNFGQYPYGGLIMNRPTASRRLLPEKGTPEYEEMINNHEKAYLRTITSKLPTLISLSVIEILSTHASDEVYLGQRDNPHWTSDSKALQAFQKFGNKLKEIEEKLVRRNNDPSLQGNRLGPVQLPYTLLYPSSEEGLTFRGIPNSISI
Protocol: The in vitro study was performed as previously described. The compounds were incubated at room temperature with sodium linoleate (0.1 mM) and 0.2 mL of soybean lipoxygenase solution (1/9 × 10^–4 w/v in phosphate buffer saline). The method was based on the conversion of sodium linoleate to 13-hydroperoxylinoleic acid, which was detected by measuring absorbance at 234 nm. […] To determine the IC50 values, serial dilutions of compounds were used. Blank determination served as a negative control.

[1] = Inhibition of linoleic acid peroxidation (ILPO) induced by AAPH; details: compounds assayed at 100 µM; n.a. = not active
[2] = Competition of the tested compounds with DMSO for hydroxyl radicals; details: compounds assayed at 100 µM; n.a. = not active; no = no activity
[3] = ABTS+ decolorization assay in ethanolic solution; details: compounds assayed at 100 µM; n.a. = not active
[4] = DPPH radical-scavenging assay; details: compounds assayed at 100 µM, DPPH 70 µM, 90 min; no = no activity
Protocol: The assay was performed as previously described by incubating compounds at a concentration of 100 µM in the presence of 2,2-diphenyl-1-picrylhydrazyl radical (DPPH, 70 µM) in methanol for 90 min, protected from sun light. The absorbance at 517 nm was then determined using a Synergy™ H4 microplate reader (BioTek Instruments, Inc., Winooski, VT, USA). The experiments were performed in triplicate, and the blank (compound without DPPH) was substracted. The percentage of DPPH free radicals was calculated using the equation DPPH free radicals (%) = ((A0 − A1)/A0) × 100, where A0 is the absorbance of MeOH and A1 is the absorbance of the compound. Trolox and resveratrol were used as positive controls.

[5] = tested on: SH-SY5Y neuroblastoma cells; test: Neuroprotection against okadaic acid, MTT cell viability; format: cell-based; details: okadaic acid 20 nM for 20 h, compounds 0.3–10 µM
Aβ1–42 = target: T2, Aβ1–42 (Homo sapiens, UniProt P05067); test: Inhibition of Aβ1–42 aggregation, Thioflavin-T assay; format: biochemical; details: 10 µM compound and 1.5 µM Aβ1–42, ThT assay
T2 construct: HFIP-pretreated Aβ1–42 peptide Merck Millipore, Darmstadt, Germany; purchased Merck Millipore, Darmstadt, Germany
T2 sequence (P05067 672-713): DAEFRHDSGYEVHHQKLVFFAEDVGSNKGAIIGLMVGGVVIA
Protocol: Thioflavin-T (ThT) assay was performed to investigate the effect of the compounds on the aggregation of Aβ1–42 (HFIP-pretreated Aβ1–42 peptide Merck Millipore, Darmstadt, Germany). Prior to the incubations, 1 mM Aβ1–42 peptide stock solution in DMSO was diluted in 150 mM HEPES buffer (pH = 7.4, 150 mM NaCl) to obtain a concentration of 7.5 μM. Subsequently, 20 µL of Aβ1–42 ([…]) was mixed with the compounds (10 µM, final concentration) on black-walled 96-well plates and diluted with ThT solution (14.3 μM stock solution in HEPES-buffered solution; 10 μM final concentration). The final volume of the mixture was 100 μL, and the DMSO concentration was always 3% (v/v). Each sample was prepared in four technical replicates. ThT fluorescence (λex = 440 nm, λem = 490 nm) was measured using a microplate reader (Synergy™ H4, BioTek Instruments, Inc., Winooski, VT, USA) for 36–48 h. Inhibition of Aβ1–42 aggregation was expressed as the percent inhibition (% inh = (1 − Fi/F0) × 100), where Fi is the increase in fluorescence of compound-treated Aβ1–42, and F0 is the increase in fluorescence of non-treated Aβ1–42.

[6] = compounds assayed at 100 µM, n.a. = not active, no = no activity under the experimental conditions

| SMILES | inhibition at 100 µM (soybean lipoxygenase; [6]) [%] | ILPO (%) [1] [%] | OH Scav. Capacity (%) [2] | ABTS+ (%) [3] [%] | DPPH [4] | IC50 (soybean lipoxygenase) [µM] | neuroprotective effect (augmented OA-reduced cell viability) [5] | inhibition at 10 µM (Aβ1–42) [%] | LOX Inhibition (%) (soybean lipoxygenase; [6]) |
| --- | --- | --- | --- | --- | --- | --- | --- | --- | --- |
| CC(C)(C)/[N+]([O-])=C/c1ccccc1 [PBN, α-phenyl-N-tert-butylnitrone, reference compound] | 23 | 11 | no | 5 | no |  |  |  |  |
| Cc1c(C)c2c(c(C)c1O)CCC(C)(C(=O)O)O2 (centres unmarked) [Trolox, reference compound] |  | 93 | 88% | 91 |  |  |  |  |  |
| [O-]/[N+](=C\c1ccc(OCCCN2CCCCC2)cc1)Cc1ccccc1 [nitrone 1, (Z)-N-Benzyl-1-(4-(3-(piperidin-1-yl)propoxy)phenyl)methanimine oxide] |  |  | 7% | 27 | 0 | 60 | statistically significant at 10 µM | 42.2 ± 5.7 |  |
| CC(C)(C)/[N+]([O-])=C/c1ccc(OCCCN2CCCCC2)cc1 [nitrone 2, (Z)-N-tert-Butyl-1-(4-(3-(piperidin-1-yl)propoxy)phenyl)methanimine oxide] |  |  | 54% |  | 0 |  |  |  |  |
| [O-]/[N+](=C\c1cccc(OCCCN2CCCCC2)c1)Cc1ccccc1 [nitrone 3, (Z)-N-Benzyl-1-(3-(3-(piperidin-1-yl)propoxy)phenyl)methanimine oxide] |  | 29 |  | 31 | 2 |  |  |  |  |
| CC(C)(C)/[N+]([O-])=C/c1cccc(OCCCN2CCCCC2)c1 [nitrone 4, (Z)-N-tert-Butyl-1-(3-(3-(piperidin-1-yl)propoxy)phenyl)methanimine oxide] | 37 | 45 | 54% | 23 | 0 |  |  |  |  |
| [O-]/[N+](=C\c1ccccc1OCCCN1CCCCC1)Cc1ccccc1 [nitrone 5, (Z)-N-Benzyl-1-(2-(3-(piperidin-1-yl)propoxy)phenyl)methanimine oxide] |  |  | 9% | 19 | 0 | 10 |  |  |  |
| CC(C)(C)/[N+]([O-])=C/c1ccccc1OCCCN1CCCCC1 [nitrone 6, (Z)-N-tert-Butyl-1-(2-(3-(piperidin-1-yl)propoxy)phenyl)methanimine oxide] | 39 |  | 13% |  | 0 |  |  |  |  |
| C#CCN1CCN(CCCOc2ccc(/C=[N+](\[O-])Cc3ccccc3)cc2)CC1 [nitrone 7, (Z)-N-Benzyl-1-(4-(3-(4-(prop-2-yn-1-yl)piperazin-1-yl)propoxy)phenyl) methanimine oxide] | 27.2 |  |  | 28 | 0 |  |  |  |  |
| C#CCN1CCN(CCCOc2ccc(/C=[N+](\[O-])C(C)(C)C)cc2)CC1 [nitrone 8, (Z)-N-tert-Butyl-1-(4-(3-(4-(prop-2-yn-1-yl)piperazin-1-yl)propoxy)phenyl) methanimine oxide] | 23.3 |  | 78% | 10 | 0 |  |  |  |  |
| C#CCN1CCN(CCCOc2cccc(/C=[N+](/[O-])Cc3ccccc3)c2)CC1 [nitrone 9, (E)-N-Benzyl-1-(3-(3-(4-(prop-2-yn-1-yl)piperazin-1-yl)propoxy)phenyl)methanimine oxide] |  |  | 81% |  | 1 | 100 |  |  |  |
| C#CCN1CCN(CCCOc2cccc(/C=[N+](\[O-])C(C)(C)C)c2)CC1 [nitrone 10, (Z)-N-tert-Butyl-1-(3-(3-(4-(prop-2-yn-1-yl)piperazin-1-yl)propoxy)phenyl) methanimine oxide] |  | 31 | 20% | 13 | 0 |  |  |  | no |
| C#CCN1CCN(CCCOc2ccccc2/C=[N+](\[O-])C(C)(C)C)CC1 [nitrone 12, (Z)-N-tert-Butyl-1-(2-(3-(4-(prop-2-yn-1-yl)piperazin-1-yl)propoxy)phenyl) methanimine oxide] | 25 | 31 | 9.8% | 13 |  |  |  |  |  |
